Measured values as given in patent US9932300B2, “N,N′-diarylurea compounds and N,N′-diarylthiourea compounds as inhibitors of translation initiation” (President and Fellows of Harvard College, priority 2009, dated 2018).
Peptide text beside a SMILES is read from it.

Columns and labels:
[1] = tested on: eIF2-GTP-Met-tRNAi ternary complex; experiment: Ternary complex activity (cell line not stated); assay type: cell-based
[2] = tested on: eIF2-GTP-Met-tRNAi ternary complex; experiment: Ternary complex assay (dual luciferase, firefly/renilla ratio) in stable KLN-tTA/pBISA-DL(ATF-4) cells; HTS and hit confirmation; assay type: cell-based, mouse; conditions: anti-cancer agents at 20 μM, ternary complex assay
[3] = tested on: eIF2-GTP-Met-tRNAi ternary complex; experiment: Ternary complex / ATF-4 dual luciferase assay in human cancer cell lines co-transfected with tTA and pBISA-DL(ATF-4) (CRL-2351, PC-3, CRL-2813); assay type: cell-based; conditions: CRL-2351 cell line
Protocol: FIGS. 8A-8D depict that N,N′-diarylureas reduce the availability of the eIF2-GTP-Met-tRNAi ternary complex in human cancer cells. A-C) PC-3, CR-L2351, and CRL-2813 human cancer cell lines were co-transfected with pBISA-DL^(ATF-4) and ptTA plasmids. One day post-transfection, the cells were treated with the indicated concentrations of N,N′-diarylureas. Firefly/renilla ratio was determined by DLR assay 8 hours after treatment. D) PC-3, CR-L2351, and CRL-2813 human cancer cell lines were treated with the indicated concentrations of N,N′-diarylureas four 8 hours, and expression of endogenous CHOP mRNA was determined by real-time PCR.
For example, reducing amount of the ternary complex increases translation of ATF-4, which results in elevated expression of CHOP mRNA and protein. Therefore, expression of endogenous CHOP mRNA and CHOP protein in KLN-tTA/pBISA-DL^(ATF-4) cells were utilized as secondary assays to validate N,N′-diarylurea compounds as modifiers of the eIF2⋅GTP⋅Met-tRNAi ternary complex. […] To rule out the possibility that the activity of N,N′-diarylurea compounds was confined to a single cell type, the effects of these compounds on the ternary complex assay and the expression of CHOP mRNA was assayed in CRL-2351, PC-3, CRL-2813 human breast, prostate, and melanoma cancer cell lines respectively. For the reporter gene assay, the three human cell lines were co-transfected with tTA expression vector and the pBISA-DL^(ATF-4) dual luciferase expression vector shown in FIG. 6. […] The expression of CHOP mRNA was assayed by real time PCR in the same cell lines treated with 5 or 20 μM of each compound. […]
Stable and transient transfection: Cells were seeded at the density of 10^5 in 60-mm (stable transfection) or 10^4 cells per well of 96-well plate (transient transfection) plates and transfected one day later using the Qiagen Transfectamine transfection kit. For selection of stable cell lines, transfected cells were transferred to 100-mm plates and selected with appropriate antibiotics.
Dual luciferase assay: Cells or minced tumors expressing firefly and renilla luciferases were lysed and the extracts assayed with a glow type dual luciferase assay kit, per manufacturer's instruction (Promega Inc., Madison, Wis.).

[4] = tested on: eIF2-GTP-Met-tRNAi ternary complex; experiment: Ternary complex assay (dual luciferase, firefly/renilla ratio) in stable KLN-tTA/pBISA-DL(ATF-4) cells; HTS and hit confirmation; assay type: cell-based, mouse; conditions: KLN-tTA/pBISA-DL(ATF-4) colonies, assay validation

Q: `CN(C(=O)Nc1cc(C(F)(F)F)cc(C(F)(F)F)c1)c1cc(C(F)(F)F)cc(C(F)(F)F)c1` was tested. Which “Maximum effect (Emax, fold over control)” value [1] did it give?
A: Its value is 13 fold over control.

Q: And the “Maximum effective dose Cmax” value [1]?
A: Its value is 10 µM.

Q: With `COc1cc(N(C)C(=O)Nc2cc(C(F)(F)F)cc(C(F)(F)F)c2)ccc1C` as the molecule, how does the “Maximum effect (Emax, fold over control)” value [1] read?
A: Its value is “Inactive”.

Q: What does the source list for `Cc1ccc(N(C)C(=O)Nc2cc(C(F)(F)F)cc(C(F)(F)F)c2)cc1O`?
A: Maximum effect (Emax, fold over control) [1]: 8.5 fold over control; Maximum effective dose Cmax [1]: 80 µM

Q: `N=C(N)NC(=O)c1nc(Cl)c(N)nc1N` [Amiloride] was tested. Which “Relative F-luc/R-luc Ratio (+/− SEM)” value [2] did it give?
A: Its value is 1.1 + 0.3.

Q: How did the “Relative F-luc/R-luc Ratio (+/− SEM)” value [2] turn out when `Clc1ccccc1C(c1ccccc1)(c1ccccc1)n1ccnc1` [CLT, clotrimazole, reference compound] was run?
A: The value was 6 + 1.1.

Q: Which “Relative F-luc/R-luc Ratio (+/− SEM)” value [2] does the source give for `CC[C@@]1(O)C(=O)OCc2c1cc1n(c2=O)Cc2cc3ccccc3nc2-1` [Camptothecin] here?
A: The value was 1.3 + 0.3.

Q: Which “Relative F-luc/R-luc Ratio (+/− SEM)” value [2] does the source give for `COc1cc2c(c(OC)c1OC)-c1ccc(OC)c(=O)cc1[C@@H](NC(C)=O)CC2` [Colchicine] here?
A: The value was 1.2 + 0.3.

Q: For `O=C(Nc1cc(C(F)(F)F)cc(C(F)(F)F)c1)Nc1cc(C(F)(F)F)cc(C(F)(F)F)c1` [Compound 3, 1,3-bis[3,5-bis(trifluoromethyl)phenyl]urea], which “ATF-4 Cmax (concentration corresponding to the maximal activity)” value (from here on “ATF-4 Cmax”) [3] is on record?
A: The value was 2.5 µM.

Q: With `CC(C)Cn1c(=O)n(C)c(=O)c2[nH]cnc21` [Compound 3-isobutyl-1-methylxanthine] as the molecule, how does the “Relative F-luc/R-luc Ratio (+/− SEM)” value [2] read?
A: Its value is 1.1 + 0.2.

Q: How did the “ATF-4 Cmax” value [3] turn out when `Cc1ccc(NC(=O)Nc2ccc(Cl)c(Cl)c2)cc1O` [Compound 4, 3-(3,4-dichlorophenyl)-1-(3-hydroxy-4-methylphenyl)urea] was run?
A: Its value is 20 µM.

Q: Which “ATF-4 Cmax” value [3] does the source give for `Cc1ccc(NC(=O)Nc2ccc(Cl)c(C(F)(F)F)c2)cc1O` [Compound 5, 3-[4-chloro-3-(trifluoromethyl)phenyl]-1-(3-hydroxy-4-methylphenyl)urea] here?
A: The value was 10 µM.

Q: With `O=c1[nH]cc(F)c(=O)[nH]1` [Compound 5-fluorouracil, 5-fluorouracil] as the molecule, how does the “Relative F-luc/R-luc Ratio (+/− SEM)” value [2] read?
A: Its value is 1 + 0.2.

Q: Which “ATF-4 Cmax” value [3] does the source give for `Cc1ccc(NC(=O)Nc2cc(C(F)(F)F)cc(C(F)(F)F)c2)cc1O` [Compound 6, 3-[3,5-bis(trifluoromethyl)phenyl]-1-(3-hydroxy-4-methylphenyl)urea] here?
A: Its value is 5 µM.

Q: With `COc1cc(NC(=O)Nc2ccc(Cl)c(C(F)(F)F)c2)ccc1C` [Compound 8] as the molecule, how does the “ATF-4 Cmax” value [3] read?
A: The value was 10 µM.

Q: For `COc1cc(NC(=O)Nc2cc(C(F)(F)F)cc(C(F)(F)F)c2)ccc1C` [Compound 9], which “ATF-4 Cmax” value [3] is on record?
A: The value was 20 µM.

Q: How did the “ATF-4 Cmax” value [3] turn out when `Cc1ccc(NC(=O)Nc2ccc(Cl)c(Cl)c2)cc1OCCN(C)C` [Compound 11, 3-(3,4-dichlorophenyl)-1-{3-[2-(dimethylamino)ethoxy]-4-methylphenyl}urea] was run?
A: The value was 20 µM.

Q: With `Cc1ccc(NC(=O)Nc2ccc(Cl)c(C(F)(F)F)c2)cc1OCCN(C)C` [Compound 12, 3-[4-chloro-3-(trifluoromethyl)phenyl]-1-{3-[2-(dimethylamino)ethoxy]-4-methylphenyl}urea] as the molecule, how does the “ATF-4 Cmax” value [3] read?
A: The value was 10 µM.

Q: With `Cc1ccc(NC(=O)Nc2cc(C(F)(F)F)cc(C(F)(F)F)c2)cc1OCCN(C)C` [Compound 13, 3-[3,5-bis(trifluoromethyl)phenyl]-1-{3-[2-(dimethylamino)ethoxy]-4-methylphenyl}urea] as the molecule, how does the “ATF-4 Cmax” value [3] read?
A: Its value is 10 µM.

Q: Which “ATF-4 Cmax” value [3] does the source give for `Cc1ccc(NC(=O)Nc2ccc(Cl)c(Cl)c2)cc1OCCN1CCOCC1` [Compound 15, 3-(3,4-dichlorophenyl)-1-{4-methyl-3-[2-(morpholin-4-yl)ethoxy]phenyl}urea] here?
A: The value was 10 µM.

Q: For `Cc1ccc(NC(=O)Nc2ccc(Cl)c(C(F)(F)F)c2)cc1OCCN1CCOCC1` [Compound 16, 3-[4-chloro-3-(trifluoromethyl)phenyl]-1-{4-methyl-3-[2-(morpholin-4-yl)ethoxy]phenyl}urea], which “ATF-4 Cmax” value [3] is on record?
A: Its value is 10 µM.

Q: With `Cc1ccc(NC(=O)Nc2cc(C(F)(F)F)cc(C(F)(F)F)c2)cc1OCCN1CCOCC1` [Compound 17, 3-[3,5-bis(trifluoromethyl)phenyl]-1-{4-methyl-3-[2-(morpholin-4-yl)ethoxy]phenyl}urea] as the molecule, how does the “ATF-4 Cmax” value [3] read?
A: The value was 10 µM.

Q: Which “ATF-4 Cmax” value [3] does the source give for `Cc1ccc(NC(=O)Nc2ccc(Cl)c(Cl)c2)cc1OCCN1CCNCC1` [Compound 23, 4-[2-(5-{[(3,4-dichlorophenyl)carbamoyl]amino}-2-methylphenoxy)ethyl]piperazine-1,4-diium dichloride] here?
A: Its value is 10 µM.

Q: Which “ATF-4 Cmax” value [3] does the source give for `Cc1ccc(NC(=O)Nc2cc(C(F)(F)F)cc(C(F)(F)F)c2)cc1OCCN1CCNCC1` [Compound 25, 4-{2-[5-({[3,5-bis(trifluoromethyl)phenyl]carbamoyl}amino)-2-methylphenoxy]ethyl}piperazine-1,4-diium dichloride] here?
A: Its value is 10 µM.

Q: How did the “ATF-4 Cmax” value [3] turn out when `O=C(Nc1ccc(Cl)c(Cl)c1)Nc1ncccc1O` [Compound 26] was run?
A: Its value is 40 µM.

Q: Which “ATF-4 Cmax” value [3] does the source give for `O=C(Nc1ccc(Cl)c(C(F)(F)F)c1)Nc1ncccc1O` [Compound 27] here?
A: The value was 40 µM.

Q: For `COc1ccc([C@@H]2Sc3ccccc3N(CCN(C)C)C(=O)[C@@H]2OC(C)=O)cc1` [Dilthiazem], which “Relative F-luc/R-luc Ratio (+/− SEM)” value [2] is on record?
A: The value was 1.4 + 0.4.

Q: With `CC(=O)O.NCC(=O)N[C@@H](Cc1c[nH]cn1)C(=O)O` [Glycyl-1-histidyl acetate] (H-Gly-His-OH) as the molecule, how does the “Relative F-luc/R-luc Ratio (+/− SEM)” value [2] read?
A: Its value is 1 + 0.1.

Q: `CO[C@@]12[C@H](COC(N)=O)C3=C(C(=O)C(C)=C(N)C3=O)N1C[C@@H]1N[C@@H]12` [Mitomycin C] was tested. Which “Relative F-luc/R-luc Ratio (+/− SEM)” value [2] did it give?
A: The value was 0.9 + 0.3.

Q: `C=C1[C@@H](O)[C@@H]2O[C@]3(CC[C@H](/C=C/[C@@H](C)[C@@H]4CC(C)=C[C@@]5(O[C@H](C[C@@](C)(O)C(=O)O)CC[C@H]5O)O4)O3)CC[C@H]2O[C@@H]1[C@@H](O)C[C@H](C)[C@H]1O[C@@]2(CCCCO2)CC[C@H]1C` [Okadaic acid] was tested. Which “Relative F-luc/R-luc Ratio (+/− SEM)” value [2] did it give?
A: The value was 1 + 0.3.

Q: For `CCCCCCCCCC(=O)NC(CN1CCOCC1)C(O)c1ccccc1` (stereo not drawn) [Threo-1-phenyl], which “Relative F-luc/R-luc Ratio (+/− SEM)” value [2] is on record?
A: Its value is 1.5 + 0.4.

Q: For `COc1cc([C@@H]2c3cc4c(cc3[C@@H](O[C@@H]3O[C@@H]5CO[C@@H](C)O[C@H]5[C@H](O)[C@H]3O)[C@H]3COC(=O)[C@H]23)OCO4)cc(OC)c1O` [etoposite, reference compound], which “Relative F-luc/R-luc Ratio (+/− SEM)” value [2] is on record?
A: Its value is 1 + 0.2.

Q: What about the “Effect on firefly/renilla luciferase ratio” value [4] of the same molecule?
A: Its value is “no effect”.
